According to US20230257351A1, “SUBSTITUTED N-[…] HAVING P2X4 RECEPTOR ANTAGONISTIC ACTIVITY” (Bayer Aktiengesellschaft, priority 2020, published 2023):

Target: T1, human P2X4 (Homo sapiens, UniProt Q99571)
T1 construct: expressed in transfected cells
T1 sequence (Q99571 1-388): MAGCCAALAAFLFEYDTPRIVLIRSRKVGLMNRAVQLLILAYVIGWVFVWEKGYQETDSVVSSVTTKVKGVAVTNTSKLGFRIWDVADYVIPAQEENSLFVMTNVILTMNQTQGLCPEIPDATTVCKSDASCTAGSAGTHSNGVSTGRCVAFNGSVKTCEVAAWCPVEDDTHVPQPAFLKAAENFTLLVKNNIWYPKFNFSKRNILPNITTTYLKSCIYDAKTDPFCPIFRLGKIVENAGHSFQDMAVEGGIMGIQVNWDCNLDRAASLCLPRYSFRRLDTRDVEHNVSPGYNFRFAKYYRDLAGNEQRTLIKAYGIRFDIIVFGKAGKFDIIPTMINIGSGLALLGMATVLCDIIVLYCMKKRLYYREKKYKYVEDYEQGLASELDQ
Assay: Human P2X4 HEK Cell FLIPR Assay
Type: cell-based
Settings: HEK293 stably expressing human P2X4, agonist Bz-ATP 3 μM (EC80); for IC50: read-out: Human P2X4 HEK Cells (FLIPR Assay) avg IC50
Description: Compounds were tested on a HEK293 cell line stably expressing human P2X4. Cells were cultured on poly-D-lysine-coated 384-well plates at a density of 15,000 cells/well and incubated overnight at 37° C., 5% CO2. P2X4 function was assessed by measuring intracellular calcium fluxes caused by Benzoylbenzoyl-ATP (Bz-ATP) using the calcium-chelating dye Fluo8-AM (Molecular Devices) with the Fluorescent Imaging Plate Reader Tetra (FLIPR^Tetra; Molecular Devices CA). On the day of the assay, the medium was removed and the cells were incubated for 30 min at 37° C. and 5% CO2 in 30 μl of dye buffer (Hank's balanced salt solution, 10 mM HEPES, 1.8 mM CaCl2, 1 mM MgCl2, 2 mM probenecid, 5 mM D-glucose monohydrate, 5 μM Fluo8-AM, pH=7.4). Compounds diluted in probenecid buffer (Hank's balanced salt solution, 10 mM HEPES, 1.8 mM CaCl2, 1 mM MgCl2, 2 mM probenecid, 5 mM D-glucose monohydrate, pH=7.4) at ten concentrations ranging from 25 μM to 1 nM (final concentration) were dispensed and incubated for 30 min at room temperature. […] The final assay volume was 50 μl and final DMSO concentration was 0.5%.
The fluorescence intensity reflecting intracellular calcium changes was recorded before and after Bz-ATP addition, at an excitation and emission wavelengths of 470-495 nm and 515-575 nm respectively.
The compounds were tested in triplicates and fluorescence intensity raw data normalized to the agonist control and fitted to the four-parameter logistic equation:
Y=Bottom+(Top−Bottom)/(1+10^((Log IC50−X)*HillSlope))
Assay plate acceptance was based on the signal window (S/B)[…] and the reference compound pIC50 within ±3σ the mean of historic pIC50 of the compound. Failure to meet two of the three criteria determined exclusion of the plate's results.

SMILES	Human P2X4 HEK Cells (FLIPR Assay) avg Efficacy [%]	IC50 [nM]
COc1ccc(N(C(C)=O)c2cc(NC(=O)Cc3ccc(F)cc3Cl)ccn2)cc1F [Example 78, N-{4-[2-(2-chloro-4-fluorophenyl)acetamido]pyridin-2-yl}-N-(3-fluoro-4-methoxyphenyl)acetamide]	94	573
CC(=O)N(c1ccc(S(C)(=O)=O)c(F)c1)c1cc(NC(=O)Cc2cccc(F)c2Cl)ccn1 [Example 81, N-{4-[2-(2-chloro-3-fluorophenyl)acetamido]pyridin-2-yl}-N-[3-fluoro-4-(methanesulfonyl)phenyl]acetamide]	97	895
CC(=O)N(c1cc(F)c(C)c(F)c1)c1cc(NC(=O)Cc2ccccc2Cl)ccn1 [Example 92, N-{4-[2-(2-chlorophenyl)acetamido]pyridin-2-yl}-N-(3,5-difluoro-4-methylphenyl)acetamide]	97	568
CC(=O)N(c1cc(F)c(C)c(F)c1)c1cc(NC(=O)Cc2cccc(F)c2Cl)ccn1 [Example 94, N-{4-[2-(2-chloro-3-fluorophenyl)acetamido]pyridin-2-yl}-N-(3,5-difluoro-4-methylphenyl)acetamide]	97	710
COc1c(F)cc(N(C(C)=O)c2cc(NC(=O)Cc3ccc(F)cc3Cl)ccn2)cc1F [Example 97, N-{4-[2-(2-chloro-4-fluorophenyl)acetamido]pyridin-2-yl}-N-(3,5-difluoro-4-methoxyphenyl)acetamide]	89	461
COc1c(F)cc(N(C(C)=O)c2cc(NC(=O)Cc3cccc(F)c3Cl)ccn2)cc1F [Example 98, N-{4-[2-(2-chloro-3-fluorophenyl)acetamido]pyridin-2-yl}-N-(3,5-difluoro-4-methoxyphenyl)acetamide]	92	296
COc1c(F)cc(N(C(C)=O)c2cc(NC(=O)Cc3c(Cl)cccc3Cl)ccn2)cc1F [Example 99, N-{4-[2-(2,6-dichlorophenyl)acetamido]pyridin-2-yl}-N-(3,5-difluoro-4-methoxyphenyl)acetamide]	95	449
COc1cc(N(C(C)=O)c2cc(NC(=O)Cc3cccc(F)c3Cl)ccn2)ccc1F [Example 103, N-{4-[2-(2-chloro-3-fluorophenyl)acetamido]pyridin-2-yl}-N-(4-fluoro-3-methoxyphenyl)acetamide]	97	767
CC(=O)N(c1cc(NC(=O)Cc2cccc(C(F)(F)F)c2Cl)ccn1)c1ccccc1Cl [Example 105, N-(2-chlorophenyl)-N-(4-{2-[2-chloro-3-(trifluoromethyl)phenyl]acetamido}pyridin-2-yl)acetamide]	100	770
CC(=O)N(c1cc(NC(=O)Cc2ccccc2Cl)ccn1)c1ccccc1Cl [Example 106, N-(2-chlorophenyl)-N-{4-[2-(2-chlorophenyl)acetamido]pyridin-2-yl}acetamide]	95	765
CC(=O)N(c1cc(NC(=O)Cc2cccc(F)c2Cl)ccn1)c1ccccc1Cl [Example 108, N-{4-[2-(2-chloro-3-fluorophenyl)acetamido]pyridin-2-yl}-N-(2-chlorophenyl)acetamide]	97	769
CC(=O)N(c1cc(NC(=O)Cc2cccc(F)c2Cl)ccn1)c1ccccc1F [Example 117, N-{4-[2-(2-chloro-3-fluorophenyl)acetamido]pyridin-2-yl}-N-(2-fluorophenyl)acetamide]	95	789
CC(=O)N(c1cc(NC(=O)Cc2c(Cl)cccc2Cl)ccn1)c1ccccc1F [Example 118, N-{4-[2-(2,6-dichlorophenyl)acetamido]pyridin-2-yl}-N-(2-fluorophenyl)acetamide]	94	545

Continued by falling IC50, values first:

Human P2X4 HEK Cells (FLIPR Assay) avg Efficacy [%]	IC50 [nM]	SMILES
101	941	CC(=O)N(c1cc(NC(=O)Cc2cccc(F)c2Cl)ccn1)c1ccc(C(F)(F)F)cc1F [Example 119, N-{4-[2-(2-chloro-3-fluorophenyl)acetamido]pyridin-2-yl}-N-[2-fluoro-4-(trifluoromethyl)phenyl]acetamide]
99	937	CC(=O)N(c1cccc(OC(F)(F)F)c1)c1cc(NC(=O)Cc2ccccc2Cl)ccn1 [Example 102, N-{4-[2-(2-chlorophenyl)acetamido]pyridin-2-yl}-N-[3-(trifluoromethoxy)phenyl]acetamide]
102	871	CC(=O)N(c1cc(NC(=O)Cc2c(Cl)cccc2Cl)ccn1)c1ccc(C(F)(F)F)cc1F [Example 120, N-{4-[2-(2,6-dichlorophenyl)acetamido]pyridin-2-yl}-N-[2-fluoro-4-(trifluoromethyl)phenyl]acetamide]
96	846	COc1cc(N(C(C)=O)c2cc(NC(=O)Cc3c(Cl)cccc3Cl)ccn2)ccc1F [Example 104, N-{4-[2-(2,6-dichlorophenyl)acetamido]pyridin-2-yl}-N-(4-fluoro-3-methoxyphenyl)acetamide]
95	745	CC(=O)N(c1cc(NC(=O)Cc2cccc(C(F)(F)F)c2Cl)ccn1)c1cc(F)ccc1Cl [Example 110, N-(2-chloro-5-fluorophenyl)-N-(4-{2-[2-chloro-3-(trifluoromethyl)phenyl]acetamido}pyridin-2-yl)acetamide]
98	705	CC(=O)N(c1cc(F)c(C)c(F)c1)c1cc(NC(=O)Cc2ccc(F)cc2Cl)ccn1 [Example 93, N-{4-[2-(2-chloro-4-fluorophenyl)acetamido]pyridin-2-yl}-N-(3,5-difluoro-4-methylphenyl)acetamide]
100	694	CC(=O)N(c1cc(F)c(C)c(F)c1)c1cc(NC(=O)Cc2c(Cl)cccc2Cl)ccn1 [Example 95, N-{4-[2-(2,6-dichlorophenyl)acetamido]pyridin-2-yl}-N-(3,5-difluoro-4-methylphenyl)acetamide]
100	643	CC(=O)N(c1cc(NC(=O)Cc2c(Cl)cccc2Cl)ccn1)c1ccccc1Cl [Example 109, N-(2-chlorophenyl)-N-{4-[2-(2,6-dichlorophenyl)acetamido]pyridin-2-yl}acetamide]
98	550	CC(=O)N(c1cc(NC(=O)Cc2ccc(F)cc2Cl)ccn1)c1ccccc1Cl [Example 107, N-{4-[2-(2-chloro-4-fluorophenyl)acetamido]pyridin-2-yl}-N-(2-chlorophenyl)acetamide]
97	520	CC(=O)N(c1cc(NC(=O)Cc2ccc(F)cc2Cl)ccn1)c1ccccc1F [Example 116, N-{4-[2-(2-chloro-4-fluorophenyl)acetamido]pyridin-2-yl}-N-(2-fluorophenyl)acetamide]
97	504	CC(=O)N(c1ccc(S(C)(=O)=O)c(F)c1)c1cc(NC(=O)Cc2c(Cl)cccc2Cl)ccn1 [Example 82, N-{4-[2-(2,6-dichlorophenyl)acetamido]pyridin-2-yl}-N-[3-fluoro-4-(methanesulfonyl)phenyl]acetamide]
96	391	CC(=O)N(c1cc(NC(=O)Cc2ccccc2Cl)ccn1)c1ccccc1F [Example 115, N-{4-[2-(2-chlorophenyl)acetamido]pyridin-2-yl}-N-(2-fluorophenyl)acetamide]
89	362	COc1c(F)cc(N(C(C)=O)c2cc(NC(=O)Cc3ccccc3Cl)ccn2)cc1F [Example 96, N-{4-[2-(2-chlorophenyl)acetamido]pyridin-2-yl}-N-(3,5-difluoro-4-methoxyphenyl)acetamide]
